Our source for the TGI values is PubChem BioAssay (NCI).

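Cells were grown in 96-well plates and exposed to each compound for 48 hours at five concentrations; endpoints were interpolated linearly between bracketing concentrations, or set to the highest concentration if not reached. TGI denotes the concentration required for complete inhibition of growth.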

One assay concerns OVCAR-5 ovarian. Briefly: DTP human tumour cell line panel, 48 h.
For the compound `CC(=O)OCC1OC(N2C(C)=C(C(C)=O)C(c3ccc(Cl)cc3)C(C#N)=C2S)C(OC(C)=O)C(OC(C)=O)C1OC(C)=O` (stereo unspecified), the total growth inhibition concentration (TGI) (usually the concentration giving total growth inhibition) is > 100 µM.

Turning to `C=C(C)C1CC2(C)C(C)CC(O)CC2C(OC(=O)C=C(C)C)C1O` (stereo unspecified), the TGI was > 100 µM.

Consider `CC1(C)N/C(=C\[N+](=O)[O-])C(C)(C)N1O`, for which the concentration for total growth inhibition (TGI) was > 10 µM.

The subject of another assay is UACC-62 melanoma. Briefly: DTP human tumour cell line panel, 48 h.
Take `COC(=O)c1csc([C@@H](OC(=O)[C@H](C)[C@H](CCCC(C)(Cl)Cl)OC(=O)c2csc([C@H](O)CO)n2)C(C)C)n1`: the concentration for total growth inhibition (TGI) is 24.3 µM.

The compound `CC(=O)OCC1OC(N2C(C)=C(C(C)=O)C(c3ccc(Cl)cc3)C(C#N)=C2S)C(OC(C)=O)C(OC(C)=O)C1OC(C)=O` (stereo unspecified) had a TGI of 60.6 µM.

Turning to `C=C(C)C1CC2(C)C(C)CC(O)CC2C(OC(=O)C=C(C)C)C1O` (stereo unspecified), the TGI was > 100 µM.

Take `CC1(C)N/C(=C\[N+](=O)[O-])C(C)(C)N1O`: the TGI was > 10 µM.

The subject of the next assay is HCT-116 colon. In words: DTP human tumour cell line panel, 48 h.
In the case of `CC(=O)OCC1OC(N2C(C)=C(C(C)=O)C(c3ccc(Cl)cc3)C(C#N)=C2S)C(OC(C)=O)C(OC(C)=O)C1OC(C)=O` (stereo unspecified), the TGI was > 100 µM.

`C=C(C)C1CC2(C)C(C)CC(O)CC2C(OC(=O)C=C(C)C)C1O` (stereo unspecified): the TGI was > 100 µM.

Consider `CC1(C)N/C(=C\[N+](=O)[O-])C(C)(C)N1O`, for which the TGI was > 10 µM.

A further assay deals with MALME-3M melanoma. In words: DTP human tumour cell line panel, 48 h.
Compound `COC(=O)c1csc([C@@H](OC(=O)[C@H](C)[C@H](CCCC(C)(Cl)Cl)OC(=O)c2csc([C@H](O)CO)n2)C(C)C)n1` yielded a TGI of 34.3 µM.

For `CC(=O)OCC1OC(N2C(C)=C(C(C)=O)C(c3ccc(Cl)cc3)C(C#N)=C2S)C(OC(C)=O)C(OC(C)=O)C1OC(C)=O` (stereo unspecified), the total growth inhibition concentration (TGI) is > 100 µM.

As for `C=C(C)C1CC2(C)C(C)CC(O)CC2C(OC(=O)C=C(C)C)C1O` (stereo unspecified), the TGI was > 100 µM.

Regarding `CC1(C)N/C(=C\[N+](=O)[O-])C(C)(C)N1O`, the TGI is > 10 µM.

Another assay concerns SN12C renal. In words: DTP human tumour cell line panel, 48 h.
In the case of `COC(=O)c1csc([C@@H](OC(=O)[C@H](C)[C@H](CCCC(C)(Cl)Cl)OC(=O)c2csc([C@H](O)CO)n2)C(C)C)n1`, the TGI worked out at 4.41 µM.

In the case of `CC(=O)OCC1OC(N2C(C)=C(C(C)=O)C(c3ccc(Cl)cc3)C(C#N)=C2S)C(OC(C)=O)C(OC(C)=O)C1OC(C)=O` (stereo unspecified), the TGI is > 100 µM.

With `C=C(C)C1CC2(C)C(C)CC(O)CC2C(OC(=O)C=C(C)C)C1O` (stereo unspecified), the concentration for total growth inhibition (TGI) is > 100 µM.

Turning to `CC1(C)N/C(=C\[N+](=O)[O-])C(C)(C)N1O`, the TGI was > 10 µM.

A further assay deals with RPMI-8226 leukemia. Briefly: DTP human tumour cell line panel, 48 h.
As to `COC(=O)c1csc([C@@H](OC(=O)[C@H](C)[C@H](CCCC(C)(Cl)Cl)OC(=O)c2csc([C@H](O)CO)n2)C(C)C)n1`, the total growth inhibition concentration (TGI) turned out to be 34.1 µM.

In the case of `CC(=O)OCC1OC(N2C(C)=C(C(C)=O)C(c3ccc(Cl)cc3)C(C#N)=C2S)C(OC(C)=O)C(OC(C)=O)C1OC(C)=O` (stereo unspecified), the concentration for total growth inhibition (TGI) is > 100 µM.

Regarding `CC1(C)N/C(=C\[N+](=O)[O-])C(C)(C)N1O`, the total growth inhibition concentration (TGI) is > 10 µM.

The next assay has as its system SK-MEL-28 melanoma. In words: DTP human tumour cell line panel, 48 h.
The compound `COC(=O)c1csc([C@@H](OC(=O)[C@H](C)[C@H](CCCC(C)(Cl)Cl)OC(=O)c2csc([C@H](O)CO)n2)C(C)C)n1` registered a total growth inhibition concentration (TGI) of 24.2 µM.

For the compound `CC(=O)OCC1OC(N2C(C)=C(C(C)=O)C(c3ccc(Cl)cc3)C(C#N)=C2S)C(OC(C)=O)C(OC(C)=O)C1OC(C)=O` (stereo unspecified), the total growth inhibition concentration (TGI) was > 100 µM.

Take `C=C(C)C1CC2(C)C(C)CC(O)CC2C(OC(=O)C=C(C)C)C1O` (stereo unspecified): the TGI was > 100 µM.

With `CC1(C)N/C(=C\[N+](=O)[O-])C(C)(C)N1O`, the concentration for total growth inhibition (TGI) is > 10 µM.

A further assay deals with NCI-H23 lung. Briefly: DTP human tumour cell line panel, 48 h.
Regarding `COC(=O)c1csc([C@@H](OC(=O)[C@H](C)[C@H](CCCC(C)(Cl)Cl)OC(=O)c2csc([C@H](O)CO)n2)C(C)C)n1`, the concentration for total growth inhibition (TGI) was found to be 30.9 µM.

Turning to `C=C(C)C1CC2(C)C(C)CC(O)CC2C(OC(=O)C=C(C)C)C1O` (stereo unspecified), the total growth inhibition concentration (TGI) was > 100 µM.

For `CC1(C)N/C(=C\[N+](=O)[O-])C(C)(C)N1O`, the concentration for total growth inhibition (TGI) is > 10 µM.

In another assay the test system is MOLT-4 leukemia. Briefly: DTP human tumour cell line panel, 48 h.
With `COC(=O)c1csc([C@@H](OC(=O)[C@H](C)[C@H](CCCC(C)(Cl)Cl)OC(=O)c2csc([C@H](O)CO)n2)C(C)C)n1`, the total growth inhibition concentration (TGI) was determined as 32.2 µM.

Compound `CC(=O)OCC1OC(N2C(C)=C(C(C)=O)C(c3ccc(Cl)cc3)C(C#N)=C2S)C(OC(C)=O)C(OC(C)=O)C1OC(C)=O` (stereo unspecified) registered a total growth inhibition concentration (TGI) of 82.2 µM.

Compound `C=C(C)C1CC2(C)C(C)CC(O)CC2C(OC(=O)C=C(C)C)C1O` (stereo unspecified) returned a TGI of 83.1 µM.

On to `CC1(C)N/C(=C\[N+](=O)[O-])C(C)(C)N1O`, for which the concentration for total growth inhibition (TGI) is > 10 µM.

The subject of the next assay is CAKI-1 renal. In words: DTP human tumour cell line panel, 48 h.
Compound `COC(=O)c1csc([C@@H](OC(=O)[C@H](C)[C@H](CCCC(C)(Cl)Cl)OC(=O)c2csc([C@H](O)CO)n2)C(C)C)n1` displayed a TGI of 32.7 µM.

For the compound `CC(=O)OCC1OC(N2C(C)=C(C(C)=O)C(c3ccc(Cl)cc3)C(C#N)=C2S)C(OC(C)=O)C(OC(C)=O)C1OC(C)=O` (stereo unspecified), the total growth inhibition concentration (TGI) is > 100 µM.

`C=C(C)C1CC2(C)C(C)CC(O)CC2C(OC(=O)C=C(C)C)C1O` (stereo unspecified): the concentration for total growth inhibition (TGI) is > 100 µM.

On to `CC1(C)N/C(=C\[N+](=O)[O-])C(C)(C)N1O`, for which the TGI was > 10 µM.

The test system of another assay is MDA-MB-231 breast. Briefly: DTP human tumour cell line panel, 48 h.
In the case of `COC(=O)c1csc([C@@H](OC(=O)[C@H](C)[C@H](CCCC(C)(Cl)Cl)OC(=O)c2csc([C@H](O)CO)n2)C(C)C)n1`, the TGI was 36.1 µM.

`CC(=O)OCC1OC(N2C(C)=C(C(C)=O)C(c3ccc(Cl)cc3)C(C#N)=C2S)C(OC(C)=O)C(OC(C)=O)C1OC(C)=O` (stereo unspecified): the TGI is > 100 µM.

With `C=C(C)C1CC2(C)C(C)CC(O)CC2C(OC(=O)C=C(C)C)C1O` (stereo unspecified), the TGI was > 100 µM.

As for `CC1(C)N/C(=C\[N+](=O)[O-])C(C)(C)N1O`, the TGI was > 10 µM.

The subject of the next assay is SW-620 colon. In words: DTP human tumour cell line panel, 48 h.
Take `COC(=O)c1csc([C@@H](OC(=O)[C@H](C)[C@H](CCCC(C)(Cl)Cl)OC(=O)c2csc([C@H](O)CO)n2)C(C)C)n1`: the TGI turned out to be 32.6 µM.

As for `CC(=O)OCC1OC(N2C(C)=C(C(C)=O)C(c3ccc(Cl)cc3)C(C#N)=C2S)C(OC(C)=O)C(OC(C)=O)C1OC(C)=O` (stereo unspecified), the total growth inhibition concentration (TGI) was > 100 µM.

As for `CC1(C)N/C(=C\[N+](=O)[O-])C(C)(C)N1O`, the concentration for total growth inhibition (TGI) is > 10 µM.

The next assay concerns NCI-H226 lung. In words: DTP human tumour cell line panel, 48 h.
Compound `COC(=O)c1csc([C@@H](OC(=O)[C@H](C)[C@H](CCCC(C)(Cl)Cl)OC(=O)c2csc([C@H](O)CO)n2)C(C)C)n1` gave a TGI of 39.7 µM.

`CC(=O)OCC1OC(N2C(C)=C(C(C)=O)C(c3ccc(Cl)cc3)C(C#N)=C2S)C(OC(C)=O)C(OC(C)=O)C1OC(C)=O` (stereo unspecified): the total growth inhibition concentration (TGI) was > 100 µM.

`C=C(C)C1CC2(C)C(C)CC(O)CC2C(OC(=O)C=C(C)C)C1O` (stereo unspecified) gave a TGI of 46.2 µM.

Regarding `CC1(C)N/C(=C\[N+](=O)[O-])C(C)(C)N1O`, the TGI is > 10 µM.

In a further assay the test system is T-47D breast. In words: DTP human tumour cell line panel, 48 h.
For `COC(=O)c1csc([C@@H](OC(=O)[C@H](C)[C@H](CCCC(C)(Cl)Cl)OC(=O)c2csc([C@H](O)CO)n2)C(C)C)n1`, the TGI was 36.5 µM.

Take `CC(=O)OCC1OC(N2C(C)=C(C(C)=O)C(c3ccc(Cl)cc3)C(C#N)=C2S)C(OC(C)=O)C(OC(C)=O)C1OC(C)=O` (stereo unspecified): the TGI is > 100 µM.

Take `C=C(C)C1CC2(C)C(C)CC(O)CC2C(OC(=O)C=C(C)C)C1O` (stereo unspecified): the concentration for total growth inhibition (TGI) was > 100 µM.

For `CC1(C)N/C(=C\[N+](=O)[O-])C(C)(C)N1O`, the TGI is > 10 µM.

A further assay concerns SK-OV-3 ovarian. In words: DTP human tumour cell line panel, 48 h.
`COC(=O)c1csc([C@@H](OC(=O)[C@H](C)[C@H](CCCC(C)(Cl)Cl)OC(=O)c2csc([C@H](O)CO)n2)C(C)C)n1` gave a TGI of 29.7 µM.

For the compound `C=C(C)C1CC2(C)C(C)CC(O)CC2C(OC(=O)C=C(C)C)C1O` (stereo unspecified), the TGI was > 100 µM.

Regarding `CC1(C)N/C(=C\[N+](=O)[O-])C(C)(C)N1O`, the TGI is > 10 µM.

The test system of a further assay is SK-MEL-5 melanoma. Briefly: DTP human tumour cell line panel, 48 h.
In the case of `COC(=O)c1csc([C@@H](OC(=O)[C@H](C)[C@H](CCCC(C)(Cl)Cl)OC(=O)c2csc([C@H](O)CO)n2)C(C)C)n1`, the concentration for total growth inhibition (TGI) stood at 31.8 µM.

As for `CC(=O)OCC1OC(N2C(C)=C(C(C)=O)C(c3ccc(Cl)cc3)C(C#N)=C2S)C(OC(C)=O)C(OC(C)=O)C1OC(C)=O` (stereo unspecified), the TGI was > 100 µM.
